Source: PMC11694444 (RSC Advances, 2025)
Like-named read-outs stand apart in the source and are kept apart here.

Assays:
Assay type in all cases: biochemical
BChE (EC 3.1.1.8) = BChE (EC 3.1.1.8) (Homo sapiens, UniProt P06276); assay: In vitro BChE inhibition assay
MAO-A = molecular target: T1, MAO-A (Homo sapiens, UniProt P21397); assay: In vitro MAO-A inhibition assay
T1 sequence (P21397 1-527): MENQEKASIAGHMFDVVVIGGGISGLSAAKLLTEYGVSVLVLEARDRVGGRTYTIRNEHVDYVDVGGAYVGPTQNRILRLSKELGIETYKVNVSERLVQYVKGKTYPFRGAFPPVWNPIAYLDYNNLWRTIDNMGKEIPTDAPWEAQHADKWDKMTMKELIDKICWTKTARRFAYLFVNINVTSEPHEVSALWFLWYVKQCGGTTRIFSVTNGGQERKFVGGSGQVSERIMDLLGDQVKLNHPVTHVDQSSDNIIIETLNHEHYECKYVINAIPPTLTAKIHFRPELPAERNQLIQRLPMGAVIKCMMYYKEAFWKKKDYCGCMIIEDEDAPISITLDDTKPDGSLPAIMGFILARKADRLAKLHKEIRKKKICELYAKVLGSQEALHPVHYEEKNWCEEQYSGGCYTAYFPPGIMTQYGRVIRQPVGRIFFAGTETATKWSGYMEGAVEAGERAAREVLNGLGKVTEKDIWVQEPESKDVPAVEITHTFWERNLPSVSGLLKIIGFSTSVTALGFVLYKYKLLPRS

[1] = molecular target: AChE (EC Number: 3.1.1.7.) (Homo sapiens, UniProt P22303); assay: In vitro AChE inhibition assay
MAO-B = molecular target: T2, MAO-B (Homo sapiens, UniProt P27338); assay: In vitro MAO-B inhibition assay
T2 sequence (P27338 1-520): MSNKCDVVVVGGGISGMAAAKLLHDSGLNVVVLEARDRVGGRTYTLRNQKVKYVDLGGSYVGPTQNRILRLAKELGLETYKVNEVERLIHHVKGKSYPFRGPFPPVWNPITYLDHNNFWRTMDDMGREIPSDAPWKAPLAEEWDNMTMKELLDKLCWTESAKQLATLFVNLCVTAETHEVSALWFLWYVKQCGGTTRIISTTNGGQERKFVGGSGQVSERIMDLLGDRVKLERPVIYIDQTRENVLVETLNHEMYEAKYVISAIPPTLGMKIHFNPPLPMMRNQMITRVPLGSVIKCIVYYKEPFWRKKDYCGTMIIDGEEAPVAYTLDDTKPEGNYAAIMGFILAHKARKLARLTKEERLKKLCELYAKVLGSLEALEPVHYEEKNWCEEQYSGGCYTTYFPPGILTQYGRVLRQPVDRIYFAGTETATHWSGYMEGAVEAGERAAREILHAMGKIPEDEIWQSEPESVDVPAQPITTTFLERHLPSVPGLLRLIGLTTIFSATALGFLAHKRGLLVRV

[2] = molecular target: T3, Cyclooxygenase (COX-2) from human recombinant (Homo sapiens, UniProt P35354); assay: biochemical
T3 sequence (P35354 18-604): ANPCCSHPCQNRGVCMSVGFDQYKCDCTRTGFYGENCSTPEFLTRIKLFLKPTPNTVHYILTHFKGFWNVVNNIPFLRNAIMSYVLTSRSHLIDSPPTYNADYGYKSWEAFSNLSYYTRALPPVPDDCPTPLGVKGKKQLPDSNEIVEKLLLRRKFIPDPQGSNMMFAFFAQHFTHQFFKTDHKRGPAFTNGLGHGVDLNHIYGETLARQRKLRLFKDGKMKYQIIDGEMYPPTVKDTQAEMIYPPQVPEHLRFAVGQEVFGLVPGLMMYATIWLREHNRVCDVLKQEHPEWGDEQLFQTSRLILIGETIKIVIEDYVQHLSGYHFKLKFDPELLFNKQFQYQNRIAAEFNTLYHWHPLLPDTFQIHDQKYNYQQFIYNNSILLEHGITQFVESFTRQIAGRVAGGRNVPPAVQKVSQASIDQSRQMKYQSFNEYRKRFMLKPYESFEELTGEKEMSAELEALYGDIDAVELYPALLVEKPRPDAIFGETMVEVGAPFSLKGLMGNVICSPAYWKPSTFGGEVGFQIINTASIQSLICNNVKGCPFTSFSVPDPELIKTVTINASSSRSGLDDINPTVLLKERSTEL

5-lipoxygenase (5-LOX) = assay: 5-Lipoxygenase inhibitory assay; settings: read-out: IC50 (μM) ± SEM 5-LOX
[3] = read-out: IC50 (μM) ± SEM BChE, ± SEM
[4] = read-out: IC50 (μM) ± SEM MAO-A, ± SEM

BChE (EC 3.1.1.8), sequence (P06276 29-602, species assumed): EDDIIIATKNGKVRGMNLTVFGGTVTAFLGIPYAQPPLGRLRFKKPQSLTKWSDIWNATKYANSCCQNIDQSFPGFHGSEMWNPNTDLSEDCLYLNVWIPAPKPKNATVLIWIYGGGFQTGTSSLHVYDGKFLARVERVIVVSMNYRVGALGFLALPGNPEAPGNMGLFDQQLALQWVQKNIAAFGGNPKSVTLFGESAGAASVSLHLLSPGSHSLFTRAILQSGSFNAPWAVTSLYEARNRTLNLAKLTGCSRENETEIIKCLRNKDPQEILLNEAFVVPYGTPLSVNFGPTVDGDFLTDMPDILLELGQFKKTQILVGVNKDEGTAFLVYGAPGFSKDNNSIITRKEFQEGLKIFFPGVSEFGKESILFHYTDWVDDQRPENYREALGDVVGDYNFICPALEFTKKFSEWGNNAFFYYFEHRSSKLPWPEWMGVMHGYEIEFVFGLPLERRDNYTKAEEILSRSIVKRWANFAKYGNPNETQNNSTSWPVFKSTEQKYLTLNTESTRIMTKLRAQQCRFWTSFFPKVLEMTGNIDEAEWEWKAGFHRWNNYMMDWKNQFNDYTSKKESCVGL
AChE (EC Number: 3.1.1.7.), sequence (P22303 32-614): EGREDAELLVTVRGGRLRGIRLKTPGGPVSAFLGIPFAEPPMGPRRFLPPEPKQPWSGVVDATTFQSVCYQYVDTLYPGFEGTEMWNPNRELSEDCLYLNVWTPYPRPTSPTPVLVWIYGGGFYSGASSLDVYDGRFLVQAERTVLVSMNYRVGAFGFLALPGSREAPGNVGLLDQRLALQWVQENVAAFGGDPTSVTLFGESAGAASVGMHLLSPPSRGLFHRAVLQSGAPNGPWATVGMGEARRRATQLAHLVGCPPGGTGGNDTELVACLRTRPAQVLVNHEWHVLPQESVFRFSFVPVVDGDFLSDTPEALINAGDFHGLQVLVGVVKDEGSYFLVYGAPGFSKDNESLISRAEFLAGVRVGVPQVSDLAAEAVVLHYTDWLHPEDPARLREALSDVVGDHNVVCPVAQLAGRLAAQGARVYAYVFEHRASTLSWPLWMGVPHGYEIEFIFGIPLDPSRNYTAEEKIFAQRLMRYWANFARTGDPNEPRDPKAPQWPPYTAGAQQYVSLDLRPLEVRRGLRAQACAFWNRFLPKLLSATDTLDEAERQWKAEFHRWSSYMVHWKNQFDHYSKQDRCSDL

2,2′-(1-(4-(6-(2,4-Dichlorophenyl)-1,8a-dihydro-7H-[1,2,4]triazolo[3,4-b][1,3,4]thiadiazin-3-yl)phenyl)-1H-1,2,4-triazole-3,5-diyl)diphenol [Compound 25]
IC50 (BChE (EC 3.1.1.8); [3]): 1.09 ± 0.11 µM | IC50 (MAO-A; [4]): 0.81 ± 0.02 µM

3-(3-(4-(3,5-Bis(2-hydroxyphenyl)-1H-1,2,4-triazol-1-yl)phenyl)-1,8a-dihydro-7H-[1,2,4]triazolo[3,4-b][1,3,4]thiadiazin-6-yl)-3,10a-dihydro-2H-benzo[g]chromen-2-one [Compound 22]
IC50 (BChE (EC 3.1.1.8); [3]): 10.8 ± 0.97 µM | IC50 (MAO-A; [4]): 0.61 ± 0.07 µM

3-(3-(4-(3,5-Bis(2-hydroxyphenyl)-1H-1,2,4-triazol-1-yl)phenyl)-1,8a-dihydro-7H-[1,2,4]triazolo[3,4-b][1,3,4]thiadiazin-6-yl)-7-bromo-3,8a-dihydro-2H-chromen-2-one [Compound 23]
activity against BChE, in words (BChE (EC 3.1.1.8)): excellent to moderate activity | IC50 (BChE (EC 3.1.1.8); [3]): 14 ± 1.11 µM | IC50 (MAO-A; [4]): 1.32 ± 0.11 µM

O=C(O)c1ccc(-n2nc(-c3ccccc3O)nc2-c2ccccc2O)cc1 [Compound 9, deferasirox, reference compound]
IC50 (BChE (EC 3.1.1.8)): 0.11 ± 0.005 µM | activity against BChE, in words (BChE (EC 3.1.1.8)): excellent to moderate activity | IC50 [1]: 0.43 ± 0.05 µM | inhibition of AChE, in words [1]: significant inhibition | IC50 (MAO-B): 0.18 ± 0.01 µM | IC50 [2]: 4.93 ± 0.38 µM | activity against COX-2, in words [2]: good to moderate activity | IC50 (MAO-A): 10 ± 1.78 µM | IC50 (5-lipoxygenase (5-LOX)): 1.28 ± 0.13 µM

Oc1ccccc1-c1nc(-c2ccccc2O)n(-c2ccc(-c3nnc4n3N=C(c3ccc(Cl)cc3)CS4)cc2)n1 [Compound 15, 2,2′-(1-(4-(6-(4-Chlorophenyl)-7H-[1,2,4]triazolo[3,4-b][1,3,4]thiadiazin-3-yl)phenyl)-1H-1,2,4-triazole-3,5-diyl)diphenol]
IC50 (BChE (EC 3.1.1.8)): 3.96 ± 0.22 µM | IC50 [2]: 75.3 ± 3.56 µM | activity against COX-2, in words [2]: good to moderate activity | IC50 (MAO-A): 3.58 ± 0.56 µM
